In patent US20210130769A1, “Method for Single Cell Encapsulation via Metabolic Glycoengineering and Copper-Free Click Chemistry” (The Board of Trustees Of the Leland Stanford Junior …, priority 2019, published 2021):
“Also recorded” adds a separate entry of the source.

Tested on: actin polymerization
Assay: Inhibition study: actin polymerization inhibitor/activator, VEGFB ELISA
Type: cell-based, human
Conditions: 24 hr
Protocol: After cell encapsulation with two different molecular weight polymers such as 5 kDa and 30 kDa, the cells were rinsed and resuspended in the media containing actin polymerization inhibitor (Cytochalastin D (CytoD): 2 μM) and activator (lysophosphatidic (LPA): […] After the incubation for 24 hr with different pharmacological chemicals, the supernatants from different treatment groups were collected to measure VEGFB production from the cells using ELISAs as above.

lysophosphatidic acid [LPA]
VEGFB production in 30 kDa encapsulated NPCs (LPA): significantly different from other groups; also recorded: decreased production of VEGFB

C=C1[C@@H](C)[C@H]2[C@H](Cc3ccccc3)NC(=O)[C@]23[C@H](OC(C)=O)/C=C/[C@@](C)(O)C(=O)[C@@H](C)C/C=C/[C@H]3[C@@H]1O [CytoD, Cytochalastin D]
VEGFB concentration in NPCs coated with 30 kDa PEG (2 μM CytoD): not significantly different | VEGFB production in NPCs coated with 5 kDa PEG (2 μM CytoD): significantly different from other groups; also recorded: increased VEGFB production
